From PubChem BioAssay (NCI) come the findings set out here.

What all share (test): growth of human tumour cells (NCI), 48 h
Assay [1] relates to MDA-MB-231 breast.
Assay [2] deals with SK-MEL-28 melanoma.
Assay [3] has as its system CAKI-1 renal.
Assay [4] relates to HT29 colon.
Assay [5] concerns T-47D breast.
Assay [6] has as its system MOLT-4 leukemia.
For assay [7], the system named is MALME-3M melanoma.
Assay [8] has as its system RXF 393 renal.
The subject of assay [9] is SK-OV-3 ovarian.
Assay [10] deals with OVCAR-3 ovarian.
Assay [11] concerns CCRF-CEM leukemia.

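Five compound concentrations were applied to cells in 96-well plates for 48 hours; endpoints were derived by simple linear interpolation of the resulting dose-response curve. Definition used: TGI = concentration required for complete inhibition of growth.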

On to `CN(c1ccccc1Cl)S(=O)(=O)c1ccc([N+](=O)[O-])cc1`, for which the TGI in assay [1], in assay [2], in assay [3], in assay [4], in assay [5] and in [6] was over 100 µM each time. In addition, the TGI in assay [7], in [8], in [9], in assay [10] and in assay [11] was over 100 µM in each case.
For `CC(=O)N=C1N(/C=C2\C(=O)Oc3ccccc3C2=O)C(=O)/C(=C/c2ccc(Cl)cc2Cl)N1C`, the TGI in [1], in assay [2], in assay [3], in assay [4], in assay [5] and in assay [6] was over 100 µM throughout. The TGI in assay [7], in assay [8], in assay [9], in [10] and in assay [11] was over 100 µM each time.
As to `Cc1cn([C@@H]2O[C@H](CO[Si](C)(C)C(C)(C)C)[C@]3(O[C@H]3C(=O)NN)[C@H]2O[Si](C)(C)C(C)(C)C)c(=O)[nH]c1=O`, the TGI in assay [1] was 13.7 µM; in assay [2] it was 25.3 µM; in assay [3], 28.2 µM; in assay [4], 7.79 µM; in [5] it was 6.32 µM; in [6] it was 6.02 µM. For the same compound, the TGI was 11.8 µM in [7]; over 25.2 µM in assay [8]; 36.2 µM in assay [9]; 15.9 µM in assay [10]; 5.43 µM in [11].
For the compound `C[N+]1(CCCl)CC[N+](C)(CCCl)CC1` (configuration not stated), the TGI in assay [1], in [2], in assay [3], in [4], in [5] and in [6] was over 100 µM each time. Also, the TGI in assay [7], in assay [8], in assay [9], in assay [10] and in assay [11] was over 100 µM in each case.
As to `O=C(N/N=C(/COc1ccc([N+](=O)[O-])cc1)N=Cc1ccncc1)c1ccncc1`, the TGI in assay [1], in [2], in [3], in assay [4], in assay [5] and in assay [6] was over 100 µM each time. Also, the TGI in [7], in assay [8], in [9], in assay [10] and in assay [11] was over 100 µM throughout.
Consider `C=C1C(=O)O[C@@H]2C[C@]3(C)CC[C@]4(C)[C@H](CC[C@@H]5[C@@]6(C)CCC(=O)C(C)(C)[C@@H]6CC[C@]54C)[C@H]3[C@H]12`, for which the TGI in assay [1] is 47.1 µM; in assay [2] it was 38.4 µM; in [3], 30.2 µM; in [4], over 56.7 µM; in assay [5] it was 34 µM; in assay [6] it was 5.76 µM. For the same compound, the TGI in assay [7] came out at 29.7 µM; in [8], 34.3 µM; in assay [9] it was 44.1 µM; in [10], 35.5 µM; in assay [11], 6.14 µM.
Regarding `CCOP(=O)(OCC)C(C#N)Cc1ccco1` (configuration not stated), the TGI in assay [1], in assay [2], in assay [3], in [4], in assay [5] and in assay [6] was over 10 µM throughout. The TGI in assay [7], in assay [8], in [9], in assay [10] and in [11] was over 10 µM throughout.
`O=C(N/N=C1/C(=O)c2c3ccccc3cc3cccc1c23)c1ccccc1`: the TGI in assay [1] was over 100 µM; in assay [2], over 95.6 µM; in assay [3], 70.1 µM; in assay [4] it was over 87.9 µM; in [5], 42 µM; in [6], over 100 µM. Further, the TGI in assay [7] was 68.5 µM; in assay [8], 56.3 µM; in [9], 75 µM; in assay [10], over 100 µM; in assay [11], over 100 µM.
Consider `O=C(O)Cc1ccc2[nH]c(O)c(C3=Nc4ccccc4C3=O)c2c1`, for which the TGI in assay [1], in assay [2], in assay [3], in assay [4], in assay [5] and in assay [6] was over 100 µM each time. For the same compound, the TGI in [7] is over 100 µM; in assay [8] it was 58.5 µM; in [9], 94.8 µM; in [10] it was 67.3 µM; in assay [11], over 100 µM.
Regarding `COc1c(O)cc2c(c1O)C(=O)/C(=C/c1ccc(O)cc1)CO2`, the TGI in assay [1] was over 100 µM; in [2], 35.3 µM; in assay [3], 53.9 µM; in assay [4], 41.1 µM; in assay [5] it was 94.8 µM; in assay [6], over 100 µM. Further, the TGI in assay [7] is 96.4 µM; in assay [8], over 100 µM; in [9], 59.3 µM; in assay [10], 55.5 µM; in [11], 65.3 µM.
For `CC(=O)OCC1OC(Oc2cc(C)c(O)cc2C/C=C(\C)CC/C=C(\C)CC(=O)CC(C)C)C(O)C(OC(C)=O)C1OC(C)=O` (configuration not stated), the TGI in assay [1] was 31.1 µM; in assay [2], over 50 µM; in assay [3] it was over 50 µM; in assay [4] it was 12.5 µM; in [5], 27.3 µM; in [6], 19.5 µM. The TGI in assay [7] was over 50 µM; in assay [8], 22.6 µM; in [9] it was over 50 µM; in assay [10] it was 30 µM; in [11], 22.3 µM.
Consider `CC(=O)N=C1N(/C=C2\C(=O)Oc3ccccc3C2=O)C(=O)/C(=C/c2ccc(NC(C)=O)cc2)N1C`, for which the TGI in assay [1], in assay [2], in [3], in assay [4], in [5] and in assay [6] was over 100 µM each time. In addition, the TGI in assay [7], in assay [8], in assay [9], in assay [10] and in assay [11] was over 100 µM throughout.
